{"source": "patent US8633204B2", "about": "(Pfizer Inc., priority 2006, dated 2014)", "key": {"[1]": {"test_system": "PI3-K in BT20 cells (phosphorylation of AKT at serine 473)", "test": "PI3-Kα Cellular Assay (AKT Ser473 phosphorylation ELISA in BT20 cells)", "assay_type": "cell-based, human", "details": "Homo sapiens, BT-20, pAKT Ser473 ELISA, 1 hour incubation", "summary_of_the_method": "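Cells seeded overnight in 0.5% FBS, then exposed 1 h at 37 °C to an 11-concentration 1:3 dilution series, in duplicate.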"}, "[2]": {"test_system": "SKOV3 tumor model", "test": "Mouse xenograft efficacy study, SKOV3", "assay_type": "in vivo", "details": "for Growth Inhibition (%): SKOV3 ovarian xenograft", "description": "The in vivo efficacy of 2-amino-8-(trans-4-hydroxycyclohexyl)-6-(6-methoxypyridin-3-yl)-4-methylpyrido[2,3-d]pyrimidin-7(8H)-one (Compound 152) disclosed in Example 53 was examined in s.c. xenograft model. Human tumor cell lines PC3 (PTEN deletion)), U87MG (PTEN deletion) and SKOV3 (PI3Kα […]) were chosen for in vivo efficacy studies due to their different genetic background and relatively high levels of phospho AKT S473 signal. Cells were implanted in the hind flank of athymic mice and tumors grew in size to 100-200 mm^3 before daily oral treatment with Compound 152 was initiated. […] For all models tested 1 mg/kg was an efficacious dose.\nAnimal Care: Female and male athymic mice (6-8 weeks old) weighing ˜22 g were obtained from Charles River Laboratory. Animal were housed on a 12 h light/dark cycle in the Pfizer vivarium and all procedures are conducted in accordance with the Pfizer Institutional Animal Care and Use Committee (IACUC). Animals are provided free access to rodent chow and water ad libitum and maintained under clean room conditions. Prior to study start animals acclimate for at least 48 h.\nCell lines: All cell lines were cultured at 37° C. in humidified 5% CO2 incubator. U87 MG glioblastoma tumor cell line was obtained from American Type Culture Collection (ATCC) and cultured with DMEM supplemented with 15% FBS and 2 mM glutamine. PC3 prostate cancer cell line were obtained from National Cancer Institute and cultured in RPMI media supplemented with 10% FBS and 2 mM glutamine. SKOV3 ovarian cancer cells were obtained from ATCC and passaged multiple times through mice, and cultured in McCoy's 5A media supplemented with 10% FBS and 2 mM glutamine. All cell lines were tested by University of Missouri Research Animal Diagnostic Laboratory for known species of murine viruses and mycoplasma contamination.\nMouse Xenograft Models: U87MG (glioblastoma), PC3 (prostate cancer) and SKOV3 (ovarian cancer) cell lines in culture were harvested by trypsinisation. Briefly, 2.5−4×10^6 tumor cells were suspended in the medium used to culture each cell line without serum and implanted sub-cutaneously (s.c) into the hind flank region of mice on day 0. Daily treatment with Compound 152, formulated in 10% ethanol, 40% PEG and 50% sodium citrate buffer or vehicle alone commenced 10-14 d after implantation when average tumors were 100-200 mm^3 in size. Tumors were measured twice weekly and tumor volume was calculated as a product of (length×width^2)/2. Studies were typically terminated when the tumor in the vehicle treated animals reached a size of >1500 mm3 or when judged to adversely affect the well being of the animal. […] Where applicable, percent tumor regression for each group was calculated as 100×(tumor volumeinitial−tumor volumefinal)/(tumor volumeinitial). A cohort of 12 animals was used for each dose group for efficacy studies. A representative cohort of animals were sacrificed at the times indicated, tumors resected, and a blood sample taken from the cardiac left ventricle and immediately placed in a vial primed with heparin sulfate. Typically one half of the tumor was fixed in 10% neutral buffered formalin, paraffin embedded, and sectioned for immunohistochemistry. The other half was frozen in liquid nitrogen and later processed to generate cell lysates for target modulation studies."}, "[3]": {"details": "SKOV3 tumor model, daily oral treatment"}}, "note": "pIC50: −log10 of the molar value. “Also recorded” adds a separate entry of the source."}
{"smiles": "COc1ccc(-c2cc3c(C)nc(N)nc3n([C@H]3CC[C@H](O)CC3)c2=O)cn1", "note": "[Compound 152, 2-amino-8-(trans-4-hydroxycyclohexyl)-6-(6-methoxypyridin-3-yl)-4-methylpyrido[2,3-d]pyrimidin-7(8H)-one]", "values": [{"measurement": "pIC50", "setting": "[1]", "result": 8.44}, {"measurement": "Growth Inhibition (%)", "setting": "[2]; 0.5 mg/kg/day oral", "result": 46, "unit": "%"}, {"measurement": "Growth Inhibition (%)", "setting": "[2]; 1 mg/kg/day oral", "result": 66, "unit": "%"}, {"measurement": "Growth Inhibition (%)", "setting": "[2]; 2 mg/kg/day oral", "result": 82, "unit": "%"}, {"measurement": "anti-tumor efficacy", "setting": "[2]; [3]", "result": "dose-dependent anti-tumor efficacy; also recorded: growth inhibition"}, {"measurement": "efficacious dose", "setting": "[2]; [3]", "result": 1, "unit": "mg/kg"}]}
